Experimental findings from patent US10793530B2, “Benzylaminopyrazinylcyclopropanecarboxylic acids, pharmaceutical compositions and uses thereof” (Boehringer Ingelheim International GmbH, priority 2017, dated 2020) are described below.

In general, EC50 refers to the midpoint of the concentration-response curve.

Sequence of human GPR40 receptor (O14842 whole entry): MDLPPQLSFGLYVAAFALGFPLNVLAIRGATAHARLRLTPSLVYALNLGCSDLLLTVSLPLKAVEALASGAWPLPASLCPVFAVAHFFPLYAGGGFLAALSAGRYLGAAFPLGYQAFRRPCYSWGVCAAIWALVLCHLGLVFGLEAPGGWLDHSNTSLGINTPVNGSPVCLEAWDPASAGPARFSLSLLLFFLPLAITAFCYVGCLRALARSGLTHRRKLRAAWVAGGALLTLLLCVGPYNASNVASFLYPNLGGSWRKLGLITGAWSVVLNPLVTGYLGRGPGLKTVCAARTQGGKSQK

The assay addresses human GPR40 receptor (Homo sapiens, UniProt O14842). Nature of the assay: IP1 accumulation measurements using the IPOne assay system. Format: cell-based. Particulars: 1321N1 cells stably expressing human GPR40 receptor; stimulated 1 h at 37° C. As to the method:
IP1 is assayed according to the manufacturers description (Cisbio Bioassays, France). In brief, the assay is started by substitution of the culture medium by stimulation buffer (Hepes 10 mM, CaCl2 1 mM, MgCl2 0.5 mM, KCl 4.2 mM, NaCl 146 mM, glucose 5.5 mM and LiCl 50 mM, pH 7.4). Cells are stimulated for 1 h at 37° C., 5% CO2 by addition of the compounds that are diluted in stimulation buffer containing LiCl. Assays are stopped by adding HTRF-conjugates (IP1-d2 and Anti-IP1 cryptate Tb) and lysis buffer, provided by the manufacturer. After an incubation time of 1 h at room temperature plates are measured using an EnVision™, Perkin Elmer. The obtained fluorescence ratios at 665/615 […] are then used to calculate the pEC50 values using Assay Explorer 3.3 Software (Accelrys, Inc.) by interpolation using an IP1 reference curve and subsequent sigmoidal curve fitting allowing for a variable hill slope.
Consider `Cc1cc(OCC2CCCO2)cc(C)c1-c1ccc(F)c(CNc2cnc(C3CC3C(=O)O)cn2)c1` (mixture of isomers) [Example 44], for which the EC50 is 1.92 µM.
The compound `Cc1cc(OCCCS(C)(=O)=O)cc(C)c1-c1cccc(CNc2cnc([C@H]3C[C@@H]3C(=O)O)cn2)c1` [Example 1, (1S,2S)-2-(5-{[4′-(3-Methanesulfonyl-propoxy)-2′,6′-dimethyl-biphenyl-3-ylmethyl]-amino}-pyrazin-2-yl)-cyclopropanecarboxylic acid] gave an EC50 of 0.036 µM. This EC50 lies about 53-fold lower than the previous one.
Turning to `CC(C)(O)CCOc1ccc(-c2cc(CNc3cnc([C@H]4C[C@@H]4C(=O)O)cn3)ccc2C(F)(F)F)cc1` [Example 2, (1S,2S)-2-(5-{[4′-(3-Hydroxy-3-methyl-butoxy)-6-trifluoromethyl-biphenyl-3-ylmethyl]-amino}-pyrazin-2-yl)-cyclopropanecarboxylic acid], a half-maximal effect (EC50) was put at 0.006 µM.
For the compound `O=C(O)[C@H]1C[C@@H]1c1cnc(NCc2ccc(C(F)(F)F)c(-c3ccc(OCC4CC4)cc3)c2)cn1` [Example 3, (1S,2S)-2-{5-[(4′-Cyclopropylmethoxy-6-trifluoromethyl-biphenyl-3-ylmethyl)-amino]-pyrazin-2-yl}-cyclopropanecarboxylic acid], the response was half-maximal at 0.028 µM (EC50).
`O=C(O)[C@H]1C[C@@H]1c1cnc(NCc2ccc(C(F)(F)F)c(-c3ccc(OC(F)(F)F)cc3)c2)cn1` [Example 4, (1S,2S)-2-{5-[(4′-Trifluoromethoxy-6-trifluoromethyl-biphenyl-3-ylmethyl)-amino]-pyrazin-2-yl}-cyclopropanecarboxylic acid] registered an EC50 of 0.009 µM.
Compound `Cc1cc(OCCC(C)(C)O)cc(C)c1-c1cc(CNc2cnc([C@H]3C[C@@H]3C(=O)O)cn2)ccc1C(F)(F)F` [Example 5, (1S,2S)-2-(5-{[4′-(3-Hydroxy-3-methyl-butoxy)-2′,6′-dimethyl-6-trifluoromethyl-biphenyl-3-ylmethyl]-amino}-pyrazin-2-yl)-cyclopropanecarboxylic acid] showed an EC50 of 0.31 µM.
Compound `COc1ccc(-c2ccc(-c3cc(CNc4cnc([C@H]5C[C@@H]5C(=O)O)cn4)c(F)cc3F)cc2)nc1` [Example 6, (1S,2S)-2-(5-{[4,6-Difluoro-4′-(5-methoxy-pyridin-2-yl)-biphenyl-3-ylmethyl]-amino}-pyrazin-2-yl)-cyclopropanecarboxylic acid] had an EC50 of 0.019 µM.
On to `COc1ccc(-c2ccc(-c3cc(CNc4cnc([C@H]5C[C@@H]5C(=O)O)cn4)c(F)cc3F)cc2)nn1` [Example 7, (1S,2S)-2-(5-{[4,6-Difluoro-4′-(6-methoxy-pyridazin-3-yl)-biphenyl-3-ylmethyl]-amino}-pyrazin-2-yl)-cyclopropanecarboxylic acid], for which the EC50 came out at 0.038 µM.
`Cc1cc(N)ccc1-c1cc(CNc2cnc([C@H]3C[C@@H]3C(=O)O)cn2)c(F)cc1F` [Example 8, (1S,2S)-2-{5-[(4′-Amino-4,6-difluoro-2′-methyl-biphenyl-3-ylmethyl)-amino]-pyrazin-2-yl}-cyclopropanecarboxylic acid] showed an EC50 of 0.126 µM.
`O=C(O)[C@H]1C[C@@H]1c1cnc(NCc2cc(-c3ccc(O)c(Cl)c3)c(F)cc2F)cn1` [Example 9, (1S,2S)-2-{5-[(3′-Choro-4,6-difluoro-4′-hydroxy-biphenyl-3-ylmethyl)-amino]-pyrazin-2-yl}-cyclopropanecarboxylic acid] displayed an EC50 of 0.596 µM.
Take `COc1c(F)cc(-c2cc(CNc3cnc([C@H]4C[C@@H]4C(=O)O)cn3)c(F)cc2F)cc1F` [Example 10, (1S,2S)-2-{5-[(4,6,3′,5′-Tetrafluoro-4′-methoxy-biphenyl-3-ylmethyl)-amino]-pyrazin-2-yl}-cyclopropanecarboxylic acid]: a half-maximal response (EC50) required 0.053 µM. This EC50 is about 11-fold lower than that of the compound before.
In the case of `Cc1cc(OCC(C)(C)O)cc(C)c1-c1ccc(F)c(CNc2cnc(C3CC3C(=O)O)cn2)c1` (centres unmarked) [Example 11], the EC50 was found to be 0.018 µM.
With `Cc1cc(OCC2(O)CCS(=O)(=O)CC2)cc(C)c1-c1ccc(F)c(CNc2cnc(C3CC3C(=O)O)cn2)c1` (centres unmarked) [Example 12], the 50% effective concentration (EC50) was 0.1 µM.
Compound `CNC(=O)c1cc(C)c(-c2ccc(F)c(CNc3cnc(C4CC4C(=O)O)cn3)c2)c(C)c1` (centres unmarked) [Example 13] returned an EC50 of 0.224 µM.
With `Cc1cc(C(=O)N(C)C)cc(C)c1-c1ccc(F)c(CNc2cnc(C3CC3C(=O)O)cn2)c1` (centres unmarked) [Example 14], it took 0.034 µM to reach a half-maximal effect (EC50). This EC50 lies about 6.6-fold lower than the previous one.
Under `Cc1cc(C(=O)O)cc(C)c1-c1ccc(F)c(CNc2cnc(C3CC3C(=O)O)cn2)c1` (centres unmarked) [Example 15] stands 0.024 µM; under `Cc1cc(-c2ccc(=O)n(C)c2)cc(C)c1-c1ccc(F)c(CNc2cnc(C3CC3C(=O)O)cn2)c1` (centres unmarked) [Example 16], 0.021 µM; under `CC(C)c1ccccc1-c1ccc(F)c(CNc2cnc(C3CC3C(=O)O)cn2)c1` (centres unmarked) [Example 17], 0.154 µM.
`Cc1cc(OCC2CCOCC2)cc(C)c1-c1ccc(F)c(CNc2cnc(C3CC3C(=O)O)cn2)c1` (centres unmarked) [Example 18] showed an EC50 of 0.014 µM.
Compound `Cc1cc(OC2CCOCC2)cc(C)c1-c1ccc(F)c(CNc2cnc(C3CC3C(=O)O)cn2)c1` (centres unmarked) [Example 20] returned an EC50 of 0.022 µM.
In turn, `Cc1cc(-c2cc(=O)n(C)cn2)cc(C)c1-c1ccc(F)c(CNc2cnc(C3CC3C(=O)O)cn2)c1` (centres unmarked) [Example 21] gave an EC50 of 0.021 µM.
In the case of `Cc1cc(-c2ccn(C)c(=O)c2)cc(C)c1-c1ccc(F)c(CNc2cnc(C3CC3C(=O)O)cn2)c1` (centres unmarked) [Example 22], the EC50 was found to be 0.014 µM.
`Cc1cc(OCC(C)(C)C#N)cc(C)c1-c1ccc(F)c(CNc2cnc(C3CC3C(=O)O)cn2)c1` (centres unmarked) [Example 24] returned an EC50 of 0.034 µM.
`Cc1cc(-c2nnn(CC(C)(C)O)n2)cc(C)c1-c1ccc(F)c(CNc2cnc(C3CC3C(=O)O)cn2)c1` (centres unmarked) [Example 28] yielded an EC50 of 0.007 µM.
For the compound `Cc1cc(OCC2(O)CCOCC2)cc(C)c1-c1ccc(F)c(CNc2cnc(C3CC3C(=O)O)cn2)c1` (centres unmarked) [Example 29], the EC50 is 0.068 µM.
Then `Cc1cc(OCC2(O)CCSCC2)cc(C)c1-c1ccc(F)c(CNc2cnc(C3CC3C(=O)O)cn2)c1` (centres unmarked) [Example 30], with 0.028 µM.
`COc1cc(-c2cc(C)c(-c3ccc(F)c(CNc4cnc(C5CC5C(=O)O)cn4)c3)c(C)c2)ccn1` (centres unmarked) [Example 31] registered a 50% effective concentration (EC50) of 0.005 µM.
For the compound `Cc1nc(-c2ccc(-c3ccc(F)c(CNc4cnc(C5CC5C(=O)O)cn4)c3)cc2)cs1` (centres unmarked) [Example 32], the EC50 was determined as 0.02 µM.
Compound `Cc1cc(OCC2(C)COC2)cc(C)c1-c1ccc(F)c(CNc2cnc(C3CC3C(=O)O)cn2)c1` (centres unmarked) [Example 33] registered an EC50 of 0.147 µM.
Turning to `Cc1cc(OCC(=O)O)cc(C)c1-c1ccc(F)c(CNc2cnc(C3CC3C(=O)O)cn2)c1` (centres unmarked) [Example 34], the EC50 was 0.104 µM.
`CCc1cccc(CC)c1-c1ccc(F)c(CNc2cnc(C3CC3C(=O)O)cn2)c1` (centres unmarked) [Example 36] showed an EC50 of 0.004 µM.
The compound `COc1cc(OC)c(F)c(-c2ccc(F)c(CNc3cnc(C4CC4C(=O)O)cn3)c2)c1F` (centres unmarked) [Example 37] gave an EC50 of 0.047 µM.
`Cc1cc(CO)cc(C)c1-c1ccc(F)c(CNc2cnc(C3CC3C(=O)O)cn2)c1` (centres unmarked) [Example 39] returned an EC50 of 4.28 µM.
For `O=C(O)C1CC1c1cnc(NCc2cc(-c3ccccc3C(F)(F)F)ccc2F)cn1` (centres unmarked) [Example 40], a half-maximal response (EC50) required 0.051 µM.
For `Cc1ccc(Cl)c(-c2ccc(F)c(CNc3cnc(C4CC4C(=O)O)cn3)c2)c1Cl` (centres unmarked) [Example 41], the EC50 came out at 0.723 µM.
Compound `Cc1cc(OC2CCOC2)cc(C)c1-c1ccc(F)c(CNc2cnc(C3CC3C(=O)O)cn2)c1` (centres unmarked) [Example 42] gave a half-maximal effective concentration (EC50) of 0.028 µM.
Under `O=C(O)C1CC1c1cnc(NCc2cc(-c3c(F)cc(F)cc3F)ccc2F)cn1` (centres unmarked) [Example 45] stands 0.034 µM.
The compound `O=C(O)C1CC1c1cnc(NCc2cc(-c3c(Cl)cccc3Cl)ccc2F)cn1` (centres unmarked) [Example 46] showed an EC50 of 0.006 µM.
The compound `O=C(O)C1CC1c1cnc(NCc2cc(-c3c(F)cccc3F)ccc2F)cn1` (centres unmarked) [Example 47] displayed an EC50 of 0.579 µM.
Take `COc1cc(C)c(-c2ccc(F)c(CNc3cnc(C4CC4C(=O)O)cn3)c2)c(C)c1` (centres unmarked) [Example 48]: the EC50 was found to be 0.024 µM.
For `Cc1cc(C(N)=O)cc(C)c1-c1ccc(F)c(CNc2cnc(C3CC3C(=O)O)cn2)c1` (centres unmarked) [Example 49], the EC50 amounted to 0.01 µM. This EC50 is about 2.4-fold lower than that of the compound before.
`COc1cc(OC)c(Cl)c(-c2ccc(F)c(CNc3cnc(C4CC4C(=O)O)cn3)c2)c1Cl` (centres unmarked) [Example 50] came in with an EC50 of 1.39 µM.
With `N#CC1(c2ccccc2-c2ccc(F)c(CNc3cnc(C4CC4C(=O)O)cn3)c2)CC1` (centres unmarked) [Example 51], the concentration giving a half-maximal response (EC50) was determined as 0.051 µM. Compared with the last compound, the EC50 is about 27-fold lower.
For `COc1cc(OC)c(-c2ccc(F)c(CNc3cnc(C4CC4C(=O)O)cn3)c2)c(OC)c1` (centres unmarked) [Example 53], a half-maximal effect (EC50) was put at 0.887 µM.
For the compound `O=C(O)C1CC1c1cnc(NCc2cc(-c3c(F)cc(OC4CC4)cc3F)ccc2F)cn1` (centres unmarked) [Example 54], the midpoint of the response, the EC50, lay at 0.011 µM. Against the preceding compound, the EC50 is about 81-fold lower.
Then `Nc1cc(F)c(-c2ccc(F)c(CNc3cnc(C4CC4C(=O)O)cn3)c2)c(F)c1` (centres unmarked) [Example 55], with 0.189 µM; and `O=C(O)C1CC1c1cnc(NCc2cc(-c3ccc(-c4cnco4)cc3)ccc2F)cn1` (centres unmarked) [Example 56], with 0.177 µM.
Then `N#Cc1cccc(C#N)c1-c1ccc(F)c(CNc2cnc(C3CC3C(=O)O)cn2)c1` (centres unmarked) [Example 57], with more than 10 µM.
Compound `COc1cc(F)c(-c2ccc(F)c(CNc3cnc(C4CC4C(=O)O)cn3)c2)c(F)c1` (centres unmarked) [Example 58] registered an EC50 of 0.896 µM.
Regarding `Cc1cccc(C)c1-c1ccc(F)c(CNc2cnc(C3CC3C(=O)O)cn2)c1` (centres unmarked) [Example 59], the EC50 amounted to 0.024 µM.
